Assay results taken from patent US5453369A, “Enzyme for producing novel cyclooisomaltooligosaccharides” (Kikkoman Corporation, priority 1992, dated 1995).

Legend:
[1] = discoloration / decomposition temperature (melting point measuring instrument); assay type: physicochemical; details: definite melting points could not be determined
From the text: 3. The definite melting points of the present compounds could not be determined in a melting point measuring instrument manufactured by Yanagimoto Co., Ltd. Their discoloration temperature ranges together with decomposition temperatures are as follows: […]

[2] = tested on: Glucodextranase, i.e. exo-type dextranase; assay: enzymatic hydrolysis with glucodextranase (exo-type dextranase); assay type: biochemical; details: 1% solution; FIG. 2
From the text: 10. Glucodextranase, i.e. exo-type dextranase, was allowed to act on the present compounds (1% solution), but they were not hydrolyzed at all as shown in FIG. 2.

Row | Structure (SMILES) | discoloration temperature ranges together with decomposition temperatures [1] | hydrolysis by glucodextranase [2]
1 | O[C@@H]1[C@@H](O)[C@H]2OC[C@H]3O[C@H](OC[C@H]4O[C@H](OC[C@H]5O[C@H](OC[C@H]6O[C@H](OC[C@H]7O[C@H](OC[C@H]8O[C@H](OC[C@@H](O2)[C@H]1O)[C@H](O)[C@@H](O)[C@@H]8O)[C@H](O)[C@@H](O)[C@@H]7O)[C@H](O)[C@@H](O)[C@@H]6O)[C@H](O)[C@@H](O)[C@@H]5O)[C@H](O)[C@@H](O)[C@@H]4O)[C@H](O)[C@@H](O)[C@@H]3O [Cycloisomaltoheptaose, cycloisomaltoheptaose] | 234-238 °C | 
2 | O[C@@H]1[C@@H](O)[C@H]2OC[C@H]3O[C@H](OC[C@H]4O[C@H](OC[C@H]5O[C@H](OC[C@H]6O[C@H](OC[C@H]7O[C@H](OC[C@H]8O[C@H](OC[C@H]9O[C@H](OC[C@H]%10O[C@H](OC[C@@H](O2)[C@H]1O)[C@H](O)[C@@H](O)[C@@H]%10O)[C@H](O)[C@@H](O)[C@@H]9O)[C@H](O)[C@@H](O)[C@@H]8O)[C@H](O)[C@@H](O)[C@@H]7O)[C@H](O)[C@@H](O)[C@@H]6O)[C@H](O)[C@@H](O)[C@@H]5O)[C@H](O)[C@@H](O)[C@@H]4O)[C@H](O)[C@@H](O)[C@@H]3O [Cycloisomaltononaose, cycloisomaltononaose] | 239-242 °C | 
3 | O[C@@H]1[C@@H](O)[C@H]2OC[C@H]3O[C@H](OC[C@H]4O[C@H](OC[C@H]5O[C@H](OC[C@H]6O[C@H](OC[C@H]7O[C@H](OC[C@H]8O[C@H](OC[C@H]9O[C@H](OC[C@@H](O2)[C@H]1O)[C@H](O)[C@@H](O)[C@@H]9O)[C@H](O)[C@@H](O)[C@@H]8O)[C@H](O)[C@@H](O)[C@@H]7O)[C@H](O)[C@@H](O)[C@@H]6O)[C@H](O)[C@@H](O)[C@@H]5O)[C@H](O)[C@@H](O)[C@@H]4O)[C@H](O)[C@@H](O)[C@@H]3O [Cycloisomaltooctaose, cycloisomaltooctaose] | 238-241 °C | 

The remaining lines, values ahead:

Row | discoloration temperature ranges together with decomposition temperatures [1] | hydrolysis by glucodextranase [2] | Structure (SMILES)
4 |  | completely hydrolyzed | OC[C@H]1O[C@H](OC[C@H]2O[C@H](OC[C@H]3O[C@H](OC[C@H]4O[C@H](OC[C@H]5O[C@H](OC[C@H]6O[C@H](OC[C@H]7OC(O)[C@H](O)[C@@H](O)[C@@H]7O)[C@H](O)[C@@H](O)[C@@H]6O)[C@H](O)[C@@H](O)[C@@H]5O)[C@H](O)[C@@H](O)[C@@H]4O)[C@H](O)[C@@H](O)[C@@H]3O)[C@H](O)[C@@H](O)[C@@H]2O)[C@H](O)[C@@H](O)[C@@H]1O (some centres unmarked) [isomaltoheptaose]
5 |  | completely hydrolyzed | OC[C@H]1O[C@H](OC[C@H]2O[C@H](OC[C@H]3O[C@H](OC[C@H]4O[C@H](OC[C@H]5O[C@H](OC[C@H]6OC(O)[C@H](O)[C@@H](O)[C@@H]6O)[C@H](O)[C@@H](O)[C@@H]5O)[C@H](O)[C@@H](O)[C@@H]4O)[C@H](O)[C@@H](O)[C@@H]3O)[C@H](O)[C@@H](O)[C@@H]2O)[C@H](O)[C@@H](O)[C@@H]1O (some centres unmarked) [isomaltohexaose]
